IC50 data for 28 compounds are collected here from ChEMBL document CHEMBL3112442, “Anilino-monoindolylmaleimides as potent and selective JAK3 inhibitors” (Bioorg Med Chem Lett, 2014).

For experiment [1], the target named is Non-receptor tyrosine-protein kinase TYK2 (Homo sapiens, UniProt P29597).
In experiment [2] the target is Tyrosine-protein kinase JAK1 (Homo sapiens, UniProt P23458).
Experiment [3] deals with T1, Tyrosine-protein kinase JAK3 (Homo sapiens, UniProt P52333).
T1 sequence (P52333 whole entry): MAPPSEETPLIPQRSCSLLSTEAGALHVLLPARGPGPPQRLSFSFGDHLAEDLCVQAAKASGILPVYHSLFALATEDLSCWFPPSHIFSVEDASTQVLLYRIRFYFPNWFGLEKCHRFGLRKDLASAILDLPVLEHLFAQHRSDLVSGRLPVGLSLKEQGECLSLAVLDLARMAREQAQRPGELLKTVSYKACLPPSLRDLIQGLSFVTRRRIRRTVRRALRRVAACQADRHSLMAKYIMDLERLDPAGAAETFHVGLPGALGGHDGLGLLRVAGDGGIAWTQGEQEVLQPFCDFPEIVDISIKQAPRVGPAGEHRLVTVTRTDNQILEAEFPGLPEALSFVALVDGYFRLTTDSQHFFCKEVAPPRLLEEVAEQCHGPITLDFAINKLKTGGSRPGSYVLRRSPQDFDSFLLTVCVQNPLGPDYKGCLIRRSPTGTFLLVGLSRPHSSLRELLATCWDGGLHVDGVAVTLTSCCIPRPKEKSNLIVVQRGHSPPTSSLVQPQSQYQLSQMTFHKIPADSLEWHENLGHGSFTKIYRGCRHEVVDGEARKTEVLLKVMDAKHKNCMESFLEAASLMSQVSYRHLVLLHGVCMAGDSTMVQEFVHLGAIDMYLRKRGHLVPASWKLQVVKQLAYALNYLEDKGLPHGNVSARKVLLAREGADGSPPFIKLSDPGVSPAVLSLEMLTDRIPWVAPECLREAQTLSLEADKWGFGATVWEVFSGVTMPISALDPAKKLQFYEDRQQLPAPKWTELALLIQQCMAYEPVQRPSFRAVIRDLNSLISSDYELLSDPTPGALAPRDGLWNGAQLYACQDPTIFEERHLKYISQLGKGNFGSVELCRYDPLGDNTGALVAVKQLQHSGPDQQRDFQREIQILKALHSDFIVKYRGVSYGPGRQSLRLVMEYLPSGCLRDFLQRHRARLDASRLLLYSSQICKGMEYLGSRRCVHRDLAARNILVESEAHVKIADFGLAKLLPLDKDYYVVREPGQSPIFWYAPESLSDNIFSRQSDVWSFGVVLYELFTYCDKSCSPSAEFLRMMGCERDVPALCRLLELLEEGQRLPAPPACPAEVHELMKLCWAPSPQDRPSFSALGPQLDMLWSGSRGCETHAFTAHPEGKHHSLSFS

Sequence of Tyrosine-protein kinase JAK1 (P23458 whole entry): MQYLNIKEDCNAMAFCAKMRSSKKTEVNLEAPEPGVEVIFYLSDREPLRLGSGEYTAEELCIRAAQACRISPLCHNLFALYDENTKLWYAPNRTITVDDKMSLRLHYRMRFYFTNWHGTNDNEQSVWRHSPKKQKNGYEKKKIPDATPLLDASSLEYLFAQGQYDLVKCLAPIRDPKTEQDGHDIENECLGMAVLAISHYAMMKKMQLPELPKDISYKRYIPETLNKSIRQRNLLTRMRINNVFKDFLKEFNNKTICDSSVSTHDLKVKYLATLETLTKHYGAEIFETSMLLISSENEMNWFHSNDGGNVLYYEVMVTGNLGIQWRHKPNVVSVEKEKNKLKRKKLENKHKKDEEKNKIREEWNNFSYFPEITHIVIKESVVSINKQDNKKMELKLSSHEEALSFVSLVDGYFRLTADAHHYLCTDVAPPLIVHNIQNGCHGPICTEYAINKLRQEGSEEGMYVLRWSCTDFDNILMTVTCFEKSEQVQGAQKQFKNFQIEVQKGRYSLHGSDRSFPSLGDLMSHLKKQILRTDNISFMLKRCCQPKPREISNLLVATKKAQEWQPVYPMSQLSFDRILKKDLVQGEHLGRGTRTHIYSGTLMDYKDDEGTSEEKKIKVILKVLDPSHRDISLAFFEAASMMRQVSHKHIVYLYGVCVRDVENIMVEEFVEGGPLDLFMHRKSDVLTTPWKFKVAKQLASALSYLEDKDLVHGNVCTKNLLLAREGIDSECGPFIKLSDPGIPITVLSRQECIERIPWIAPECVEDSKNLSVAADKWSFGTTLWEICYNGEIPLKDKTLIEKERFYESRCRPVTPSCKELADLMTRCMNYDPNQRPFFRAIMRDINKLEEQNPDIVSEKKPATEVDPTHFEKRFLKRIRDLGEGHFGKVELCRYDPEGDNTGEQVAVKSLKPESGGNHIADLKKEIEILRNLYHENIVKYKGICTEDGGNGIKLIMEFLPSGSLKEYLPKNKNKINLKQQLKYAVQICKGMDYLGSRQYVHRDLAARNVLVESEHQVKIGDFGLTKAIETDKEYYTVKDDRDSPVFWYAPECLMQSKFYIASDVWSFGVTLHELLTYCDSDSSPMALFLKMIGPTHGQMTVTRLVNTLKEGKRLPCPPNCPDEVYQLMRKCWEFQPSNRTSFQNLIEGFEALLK
Sequence of Non-receptor tyrosine-protein kinase TYK2 (P29597 whole entry): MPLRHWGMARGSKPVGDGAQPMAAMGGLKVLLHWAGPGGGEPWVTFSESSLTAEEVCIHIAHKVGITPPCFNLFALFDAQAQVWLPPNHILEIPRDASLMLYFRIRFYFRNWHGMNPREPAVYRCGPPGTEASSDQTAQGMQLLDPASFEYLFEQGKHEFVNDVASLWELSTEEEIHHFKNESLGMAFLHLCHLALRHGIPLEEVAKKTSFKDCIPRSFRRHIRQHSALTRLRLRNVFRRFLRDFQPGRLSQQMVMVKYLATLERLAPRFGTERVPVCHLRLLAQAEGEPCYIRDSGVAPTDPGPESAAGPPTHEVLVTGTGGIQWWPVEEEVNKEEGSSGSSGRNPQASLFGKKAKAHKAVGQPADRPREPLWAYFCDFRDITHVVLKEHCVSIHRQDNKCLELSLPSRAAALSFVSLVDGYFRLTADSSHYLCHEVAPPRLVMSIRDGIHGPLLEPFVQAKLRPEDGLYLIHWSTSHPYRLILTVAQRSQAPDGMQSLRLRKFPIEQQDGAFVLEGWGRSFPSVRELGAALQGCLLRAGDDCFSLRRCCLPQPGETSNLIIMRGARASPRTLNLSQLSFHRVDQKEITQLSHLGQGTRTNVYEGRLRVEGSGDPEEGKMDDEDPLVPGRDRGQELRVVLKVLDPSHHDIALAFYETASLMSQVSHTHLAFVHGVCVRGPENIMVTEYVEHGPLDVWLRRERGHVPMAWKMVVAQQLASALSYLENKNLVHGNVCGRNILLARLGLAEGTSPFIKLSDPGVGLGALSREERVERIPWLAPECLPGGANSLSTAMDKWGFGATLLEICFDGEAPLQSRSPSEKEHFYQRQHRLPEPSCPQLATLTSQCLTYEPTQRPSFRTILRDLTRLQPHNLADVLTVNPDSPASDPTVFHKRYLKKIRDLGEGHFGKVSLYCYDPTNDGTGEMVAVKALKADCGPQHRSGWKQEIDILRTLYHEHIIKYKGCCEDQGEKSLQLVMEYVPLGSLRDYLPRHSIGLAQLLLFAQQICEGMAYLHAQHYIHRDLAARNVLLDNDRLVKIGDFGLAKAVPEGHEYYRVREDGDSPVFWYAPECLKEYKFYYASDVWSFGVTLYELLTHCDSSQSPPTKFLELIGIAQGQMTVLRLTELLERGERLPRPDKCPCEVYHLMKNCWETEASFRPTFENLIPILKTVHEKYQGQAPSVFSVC

With `CC(C)(O)C(=O)N1CCN(c2ccc(C(F)(F)F)c(C3=C(c4c[nH]c5ccccc45)C(=O)NC3=O)c2)CC1`, the results for the IC50 in experiment [1] and in experiment [2] were 1690 nM and 311 nM, respectively.
With `O=C1NC(=O)C(c2c[nH]c3ccccc23)=C1Nc1cccc(O[C@H]2CCN(c3ccnc(F)c3)C2)c1`, the IC50 (usually the concentration needed to halve the response being measured) in experiment [3] was found to be 13 nM; in experiment [2], 628 nM.
On to `O=C1NC(=O)C(c2c[nH]c3ccccc23)=C1Nc1cccc(O[C@@H]2CCN(c3ccnc(F)c3)C2)c1`, for which the IC50 is greater than 10000 nM in experiment [1], 497 nM in experiment [3] and 4900 nM in experiment [2].
For `O=C1NC(=O)C(c2c[nH]c3ccccc23)=C1Nc1cccc(C2CCN(c3ccnc(F)c3)CC2)c1`, in that order: greater than 10000 nM, greater than 10000 nM and greater than 10000 nM.
For `O=C1NC(=O)C(c2c[nH]c3ccccc23)=C1Nc1cccc(C2CN(c3ccnc(F)c3)C2)c1`, the figures for the IC50 in experiment [1], in experiment [3] and in experiment [2] were greater than 10000 nM, 576 nM and 11100 nM, respectively.
For `O=C1NC(=O)C(c2c[nH]c3ccccc23)=C1Nc1cccc(OCCCn2ccnc2)c1`, in that order: greater than 10000 nM, 128 nM and 300 nM.
On to `O=C1NC(=O)C(c2c[nH]c3ccccc23)=C1Nc1cccc(OCCn2ccnc2)c1`, for which the IC50 in experiment [1] was greater than 10000 nM; in experiment [3], 1790 nM; in experiment [2], greater than 10000 nM.
As for `O=C1NC(=O)C(c2c[nH]c3ccccc23)=C1Nc1ccc(OCCn2ccnc2)cc1`, the figures for the IC50 in experiment [1], in experiment [3] and in experiment [2] were 7370 nM, 278 nM and greater than 10000 nM, respectively.
For `O=C1NC(=O)C(c2c[nH]c3ccccc23)=C1Nc1ccc(OCCCn2ccnc2)cc1`, in that order: greater than 10000 nM, 1150 nM and 8640 nM.
The matching figures for `O=C1NC(=O)C(c2c[nH]c3ccccc23)=C1Nc1ccccc1OCCn1ccnc1`: greater than 10000 nM, 9370 nM and greater than 10000 nM.
The matching figures for `O=C1NC(=O)C(c2c[nH]c3ccccc23)=C1Nc1ccc(OCCCNc2ccnc(F)c2)cc1`: greater than 10000 nM, 135 nM and 1060 nM.
For the compound `O=C1NC(=O)C(c2c[nH]c3ccccc23)=C1Nc1ccc(OCCNc2ccnc(F)c2)cc1`, the values for the 50% inhibitory concentration (IC50) in experiment [1], in experiment [3] and in experiment [2] were 9840 nM, 201 nM and 2060 nM, respectively.
Regarding `O=C1NC(=O)C(c2c[nH]c3ccccc23)=C1Nc1ccccc1OCCNc1ccnc(F)c1`, the IC50 in experiment [1], in experiment [3] and in experiment [2] was greater than 10000 nM in each case.
Regarding `O=C1NC(=O)C(c2c[nH]c3ccccc23)=C1Nc1cccc(OCCNc2ccnc(F)c2)c1`, the results for the IC50 in experiment [1], in experiment [3] and in experiment [2] were greater than 10000 nM, 29 nM and 423 nM, respectively.
Consider `Cn1cc(C2=C(Nc3cccc(OCCNc4ccnc(F)c4)c3)C(=O)NC2=O)c2ccccc21`, for which the IC50 in experiment [1] is 5100 nM; in experiment [3], 179 nM; in experiment [2], 1780 nM.
The matching figures for `CN(CCOc1cccc(NC2=C(c3c[nH]c4ccccc34)C(=O)NC2=O)c1)c1ccnc(F)c1`: 995 nM, 46 nM and greater than 10000 nM.
`O=C1NC(=O)C(c2c[nH]c3ccccc23)=C1Nc1cccc(OCCNc2ccccn2)c1` returned an IC50 in experiment [3] of 1500 nM.
Take `O=C1NC(=O)C(c2c[nH]c3ccccc23)=C1Nc1cccc(OCCNc2cnccn2)c1`: the IC50 in experiment [3] was determined as 408 nM.
In the case of `O=C1NC(=O)C(c2c[nH]c3ccccc23)=C1Nc1cccc(OCCNc2ccccc2)c1`, inhibition in experiment [3] was half-maximal at 1380 nM (IC50).
Compound `O=C1NC(=O)C(c2c[nH]c3ccccc23)=C1Nc1cccc(OCCNc2cc(F)cc(F)c2)c1` came in with an IC50 in experiment [3] of 1390 nM.
As to `O=C1NC(=O)C(c2ccccc2)=C1Nc1cccc(OCCNc2ccnc(F)c2)c1`, the IC50 in experiment [1] is greater than 10000 nM; in experiment [3] it was 576 nM; in experiment [2], 2170 nM.
Turning to `O=C1C=C(Nc2cccc(OCCNc3ccnc(F)c3)c2)C(=O)N1`, the IC50 in experiment [1], in experiment [3] and in experiment [2] was greater than 10000 nM in each case.
Regarding `O=C1NC(=O)C(c2c[nH]c3ccccc23)=C1Nc1cccc(OC2CCN(c3ccnc(F)c3)CC2)c1`, the IC50 was greater than 10000 nM in experiment [1], 625 nM in experiment [3] and 4820 nM in experiment [2].
With `O=C1NC(=O)C(c2c[nH]c3ccccc23)=C1Nc1cccc(OC2CN(c3ccnc(F)c3)C2)c1`, the IC50 in experiment [1] was greater than 10000 nM; in experiment [3], 200 nM; in experiment [2], 4100 nM.
Take `O=C1NC(=O)C(c2cn(CCCn3ccnc3)c3ccccc23)=C1Nc1ccccc1`: the results for the IC50 in experiment [1], in experiment [3] and in experiment [2] were 2310 nM, 17 nM and 770 nM, respectively.
As to `O=C1NC(=O)C(c2c[nH]c3ccccc23)=C1Nc1cccc(C2CCN(c3ccnc(F)c3)C2)c1` (racemic), the IC50 in experiment [1], in experiment [3] and in experiment [2] was greater than 10000 nM in each case.
`O=C1NC(=O)C(c2c[nH]c3ccccc23)=C1Nc1cccc(OC2CCCN(c3ccnc(F)c3)C2)c1` (racemic): the values for the IC50 in experiment [1], in experiment [3] and in experiment [2] were greater than 10000 nM, 163 nM and greater than 10000 nM, respectively.
As to `O=C1NC(=O)C(c2c[nH]c3ccccc23)=C1Nc1cccc(OC2CCN(c3ccnc(F)c3)C2)c1` (racemic), the figures for the IC50 in experiment [1], in experiment [3] and in experiment [2] were 11900 nM, 12 nM and 564 nM, respectively.
